Source: US20130267680A1, “TOTAL CHEMICAL SYNTHESIS OF UBIQUITIN, UBIQUITIN MUTANTS AND DERIVATIVES THEREOF” (Stichting Het Nederlands kankerinstituut, priority 2010, published 2013)

Legend:
HAUSP/USP7 [1] = test: Binding of HAUSP/USP7 to ubiquitin-VME; settings: Ub-VME 2 μM, USP7 1 μM, 60 min at 30° C.
Description: Both Ub derivatives are routinely used to measure activity of deubiquitinating enzymes (DUBs). […] The structural integrity of synthetic UbAMC and UBRh110Gly, both prepared in accordance with the method of the present invention, was tested using the following assays.
Binding of HAUSP/USP7 to ubiquitin-VME Assay buffer: 20 mM HEPES pH7.5 • 150 mM NaCl • 2 μM ZnCl2 • 10 mM MgCl2 • 2 mM DTT
Reaction mixtures were incubated for 60 min at 30° C.
Load 10 μL on gel (complete sample)
Target sequence in this assay (Q93009 206-1102): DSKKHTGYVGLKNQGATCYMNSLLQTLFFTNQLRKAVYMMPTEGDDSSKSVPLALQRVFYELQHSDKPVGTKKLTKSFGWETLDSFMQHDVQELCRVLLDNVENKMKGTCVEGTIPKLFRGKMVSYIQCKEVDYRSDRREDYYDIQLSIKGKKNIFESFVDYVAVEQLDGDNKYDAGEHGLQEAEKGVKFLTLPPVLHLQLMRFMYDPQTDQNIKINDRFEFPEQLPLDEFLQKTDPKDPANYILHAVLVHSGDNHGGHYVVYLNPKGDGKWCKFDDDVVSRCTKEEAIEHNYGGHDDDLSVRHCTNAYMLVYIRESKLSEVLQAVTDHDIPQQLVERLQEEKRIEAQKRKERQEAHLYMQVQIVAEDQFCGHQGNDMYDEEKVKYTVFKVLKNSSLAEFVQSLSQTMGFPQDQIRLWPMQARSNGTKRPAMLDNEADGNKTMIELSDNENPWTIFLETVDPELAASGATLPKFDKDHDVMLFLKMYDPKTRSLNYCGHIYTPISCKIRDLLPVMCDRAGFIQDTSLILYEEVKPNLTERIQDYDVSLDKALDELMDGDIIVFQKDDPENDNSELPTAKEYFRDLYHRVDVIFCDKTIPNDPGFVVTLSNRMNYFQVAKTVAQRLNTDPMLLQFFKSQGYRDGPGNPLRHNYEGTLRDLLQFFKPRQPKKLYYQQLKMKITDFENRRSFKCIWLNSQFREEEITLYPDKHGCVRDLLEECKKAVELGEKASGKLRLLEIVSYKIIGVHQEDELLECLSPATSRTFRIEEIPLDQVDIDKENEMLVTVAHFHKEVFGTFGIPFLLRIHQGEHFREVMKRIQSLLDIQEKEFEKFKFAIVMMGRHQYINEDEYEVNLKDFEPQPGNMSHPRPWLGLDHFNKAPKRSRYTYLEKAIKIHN

HAUSP/USP7 [2] = test: Ub-AMC/Ub-Rh110-Gly DUB assay with HAUSP/USP7; assay type: biochemical; settings: 1 nM enzyme
Description: (§1) FIG. 5: Hydrolysis of fluorogenic Ub derivatives by the deubiquitinating enzymes HAUSP/USP7 and UCH-L3. All assays contained 1 nM of enzyme, substrate concentration was varied.
Assay 1: Commercial and synthetic Ub-AMC, prepared according to the present method are treated side by side with HAUSP/USP7 and compared.
(§2) Assay 3: Ub-Rh110-Gly was treated with HAUSP/USP7 and UCH-L3.
Usp7(206-1102) was expressed in E. coli from a synthetic construct and purified as described: (a) Shanmugham et al. J. Am. Chem. Soc. 2010, 132, 8834-8835; (b) Fernandez-Montalvan et al. Febs J. 2007, 274, […].
(§3) assay buffer: 50 mM HEPES pH 7.5 • 100 mM NaCl • 1 mM EDTA • 0.05% Tween20 • 10 mM DTT • Reaction mixtures were incubated for 30 min at 25° C., measured every 5 minutes • 30 μL reactions • Proteins used: Ub-AMC (Commercial) • Ub-AMC (Synthetic) • Ub-Rh110-Gly (Synthetic) • USP7 full length • UCH-L3 All assays contained 1 nM DUB and the following concentrations of Ub:
DUB activity on commercial (Sigma) and synthetic ubiquitin with a C-terminal fluorescent group, 7-amino-4-methylcoumarin (Ub-AMC) were performed at 25° C. in buffer containing 50 mM Hepes pH 7.5, 100 mM NaCl, 1 mM EDTA, 0.05% (w/v) Tween20, 10 mM DTT. The concentrations Ubiquitin-AMC and DUB are specified in the figures. Assays were performed in “Non binding surface flat bottom low flange” black 384-well plates (Corning) in 30 μl reactions. Kinetic data was collected in intervals of 5 min using a Fluostar Optima fluorescence plate reader (BMG Labtechnologies) at excitation and emission wavelengths of 355 nm and 460 nm, respectively for Ub-AMC. Experimental data was processed using Prism 4.03 (GraphPad Software, Inc.).
Target sequence in this assay (Q93009 whole entry): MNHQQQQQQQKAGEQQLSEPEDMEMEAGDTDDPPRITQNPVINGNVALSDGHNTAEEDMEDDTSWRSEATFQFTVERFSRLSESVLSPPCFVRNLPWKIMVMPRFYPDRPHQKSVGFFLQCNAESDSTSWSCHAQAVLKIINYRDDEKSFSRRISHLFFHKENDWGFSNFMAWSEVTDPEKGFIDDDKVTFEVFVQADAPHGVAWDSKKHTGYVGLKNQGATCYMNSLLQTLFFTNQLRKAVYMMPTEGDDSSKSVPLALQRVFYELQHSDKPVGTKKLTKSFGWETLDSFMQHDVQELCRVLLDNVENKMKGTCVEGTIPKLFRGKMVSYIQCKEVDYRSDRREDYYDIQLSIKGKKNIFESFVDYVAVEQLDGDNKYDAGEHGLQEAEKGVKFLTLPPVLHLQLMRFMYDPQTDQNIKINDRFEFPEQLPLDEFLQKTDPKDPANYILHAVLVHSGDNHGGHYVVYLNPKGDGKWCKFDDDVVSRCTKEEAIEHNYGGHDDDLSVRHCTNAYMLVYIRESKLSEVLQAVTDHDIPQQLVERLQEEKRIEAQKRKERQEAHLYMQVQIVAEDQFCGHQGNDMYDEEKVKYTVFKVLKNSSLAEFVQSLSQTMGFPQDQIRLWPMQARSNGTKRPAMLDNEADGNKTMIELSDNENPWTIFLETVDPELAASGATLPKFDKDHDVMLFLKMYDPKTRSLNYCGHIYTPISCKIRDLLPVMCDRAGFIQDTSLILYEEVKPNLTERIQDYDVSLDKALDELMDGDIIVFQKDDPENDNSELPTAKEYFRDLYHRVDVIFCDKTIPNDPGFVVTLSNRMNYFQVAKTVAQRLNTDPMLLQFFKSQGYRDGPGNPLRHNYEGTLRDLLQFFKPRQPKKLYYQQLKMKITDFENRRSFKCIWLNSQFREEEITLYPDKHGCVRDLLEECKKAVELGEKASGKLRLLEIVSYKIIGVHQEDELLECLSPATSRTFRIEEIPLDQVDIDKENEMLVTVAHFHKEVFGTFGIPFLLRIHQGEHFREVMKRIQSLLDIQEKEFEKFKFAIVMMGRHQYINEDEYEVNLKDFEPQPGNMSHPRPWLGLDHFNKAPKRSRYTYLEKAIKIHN

UCH-L3 = target: T1, UCH-L3 (Homo sapiens, UniProt P15374); test: Ub-AMC/Ub-Rh110-Gly DUB assay with UCH-L3; assay type: biochemical; settings: 1 nM enzyme, substrate 0.06-15 μM, 25° C., 30 min
T1 construct: made in house; host or cells: Escherichia coli
T1 sequence (P15374 1-230): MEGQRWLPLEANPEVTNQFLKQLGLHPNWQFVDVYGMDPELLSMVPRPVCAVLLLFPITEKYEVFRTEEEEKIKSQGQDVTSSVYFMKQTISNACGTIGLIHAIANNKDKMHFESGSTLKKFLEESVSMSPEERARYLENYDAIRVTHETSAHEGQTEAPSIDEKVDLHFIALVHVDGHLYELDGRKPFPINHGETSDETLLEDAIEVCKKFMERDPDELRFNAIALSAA
Description: as §1
Assay 2. Synthetic Ub-AMC was treated with UCH-L3.
as §2
UCH-L3 in pRSET vector was obtained from Dr. Keith Wilkinson. UCH-L3 was expressed in Escherichia coli and purified as described in: C. N. Larsen, J. S. Price, K. D. Wilkinson, K. D. Biochemistry 1996, 35, 6735-6744.
as §3
DUB activity on commercial (Sigma) and synthetic ubiquitin with a C-terminal fluorescent group, 7-amino-4-methylcoumarin (Ub-AMC) were performed at 25° C. in buffer containing 50 mM Hepes pH 7.5, 100 mM NaCl, 1 mM EDTA, 0.05% (w/v) Tween20, 10 mM DTT. The concentrations Ubiquitin-AMC and DUB are specified in the figures. […] Kinetic data was collected in intervals of 5 min using a Fluostar Optima fluorescence plate reader (BMG Labtechnologies) at excitation and emission wavelengths of 355 nm and 460 nm, respectively for Ub-AMC. […]

reaction of active-site targeted probe with HAUSP/USP7 (HAUSP/USP7 [1])	Km values with HAUSP/USP7 (HAUSP/USP7 [2]; substrate concentration varied, synthetic versus commercial UbAMC)	hydrolysis / turnover by UCH-L3 (recognition as substrate) (UCH-L3)	Substance	hydrolysis / turnover by HAUSP/USP7 (recognition as substrate) (HAUSP/USP7 [2]; substrate 0.06-15 μM, 25° C., 30 min)	Michaelis-Menten kinetics comparison with USP7 (HAUSP/USP7 [2]; substrate concentration varied, commercial versus synthetic UbAMC (FIG. 5C))	hydrolysis / turnover by UCH-L3 (recognition as substrate) (UCH-L3; listed as synthetic Ub-AMC)
reacted swiftly as expected	–	–	UbVME: active site directed probe Ub vinylmethyl ester which covalently modifies DUBs	–	–	–
–	comparable Km values	efficient turnover	synthetic UbAMC: synthetic ubiquitin with a C-terminal fluorescent group, 7-amino-4-methylcoumarin; fluorogenic assay reagent	efficient turnover	identical kinetics	hydrolyzed and thus recognized as a substrate
